# Reference: patent US6800641B2, “Antipsychotic aminomethyl derivatives of 7,8-dihydro-3H-6,9-dioxa-2,3-diaza-cyclopenta[a]naphthalene” (Wyeth, priority 2001, dated 2004)
# Where a name gives a salt, the structure may show the parent alone.
# Biological target: T1, dopamine D2 receptor (Rattus norvegicus, UniProt P61169)
# T1 construct: from tissue; host or cells: rat striatal brain tissue homogenate
# Assay: Dopamine D2 receptor affinity, 3H-quinpirole binding in homogenized rat striatal brain tissue
# Method: Affinity for the dopamine D2 receptor was established by a modification of the standard experimental test procedure of Seemen and Schaus, European Journal of Pharmacology 203: 105-109, 1991, wherein homogenized rat striatal brain tissue is incubated with ^3H-quinpirole and various concentrations of test compound, filtered and washed and counted in a Betaplate scintillation counter.
# T1 sequence (P61169 whole entry): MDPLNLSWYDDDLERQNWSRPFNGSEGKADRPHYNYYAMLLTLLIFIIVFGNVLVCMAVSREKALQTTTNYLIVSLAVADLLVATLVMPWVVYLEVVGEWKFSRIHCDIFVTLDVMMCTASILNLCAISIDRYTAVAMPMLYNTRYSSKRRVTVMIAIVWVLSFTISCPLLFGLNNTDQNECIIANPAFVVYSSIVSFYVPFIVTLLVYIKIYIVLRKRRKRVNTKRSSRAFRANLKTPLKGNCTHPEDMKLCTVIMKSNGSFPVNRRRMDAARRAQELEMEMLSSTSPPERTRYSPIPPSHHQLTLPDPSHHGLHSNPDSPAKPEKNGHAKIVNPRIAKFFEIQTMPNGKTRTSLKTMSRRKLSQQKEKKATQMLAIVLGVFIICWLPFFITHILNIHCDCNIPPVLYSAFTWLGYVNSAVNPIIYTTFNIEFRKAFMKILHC
row,SMILES,IC50 [nM]
1,c1ccc(CNC[C@H]2COc3ccc4[nH]ncc4c3O2)cc1 [Example 1],0.45
2,"C1=C(c2c[nH]c3ccccc23)CCN(CC2COc3ccc4[nH]ncc4c3O2)C1 (centres unmarked) [Example 6, 8-[4-(1H-indol-3-yl)-3,6-dihydro-2H-pyridin-1-ylmethyl]-7,8-dihydro-3H-6,9-dioxa-2,3-diaza-cyclopenta[a]naphthalene]",4.5
3,c1ccc(CCCCNC[C@H]2COc3ccc4[nH]ncc4c3O2)cc1 [Example 2],0.29

# Results, then the compound that gave them:
row,IC50 [nM],SMILES
1,0.1,"c1cc2[nH]ncc2c2c1OCC(CNCC13CC4CC(CC(C4)C1)C3)O2 (centres unmarked) [Example 3, Adamantan-1-ylmethyl-(-7,8-dihydro-3H-6,9-dioxa-2,3-diaza-cyclopenta[a]naphthalen-8-ylmethyl)-amine]"
2,0.17,"c1ccc2c(CCCNCC3COc4ccc5[nH]ncc5c4O3)c[nH]c2c1 (centres unmarked) [Example 4, (7,8-Dihydro-3H-6,9-dioxa-2,3-diaza-cyclopenta[a]naphthalen-8-ylmethyl)-[3-(1H-indol-3-yl)-propyl]-amine]"
3,1.1,"c1ccc2c(c1)CCN(CC1COc3ccc4[nH]ncc4c3O1)C2 (centres unmarked) [Example 5, 8-(3,4-Dihydro-1H-isoquinolin-2-ylmethyl)-7,8-dihydro-3H-6,9-dioxa-2,3-diaza-cyclopenta[a]naphthalene]"
4,3.4,"Fc1ccc2[nH]cc(CC3CCN(CC4COc5ccc6[nH]ncc6c5O4)CC3)c2c1 (centres unmarked) [Example 7, 8-[4-(5-Fluoro-1H-indol-3-ylmethyl)-piperidin-1-ylmethyl]-7,8-dihydro-3H-6,9-dioxa-2,3-diaza-cyclopenta[a]naphthalene]"

# Test system: not given
# Assay: not given
row,SMILES,melting point [°C]
1,c1ccc(CNC[C@H]2COc3ccc4[nH]ncc4c3O2)cc1 (as salt: fumarate) (hydrate or solvate) [Example 1],194 to 195.7
2,"C1=C(c2c[nH]c3ccccc23)CCN(CC2COc3ccc4[nH]ncc4c3O2)C1 (centres unmarked) (as salt: hydrochloride) [Example 6, 8-[4-(1H-indol-3-yl)-3,6-dihydro-2H-pyridin-1-ylmethyl]-7,8-dihydro-3H-6,9-dioxa-2,3-diaza-cyclopenta[a]naphthalene]",190
3,c1ccc(CCCCNC[C@H]2COc3ccc4[nH]ncc4c3O2)cc1 (as salt: hydrochloride) (hydrate or solvate) [Example 2],104

# The remaining lines, values ahead:
row,melting point [°C],SMILES
1,138 to 142,"c1ccc2c(CCCNCC3COc4ccc5[nH]ncc5c4O3)c[nH]c2c1 (centres unmarked) (as salt: oxalate) [Example 4, (7,8-Dihydro-3H-6,9-dioxa-2,3-diaza-cyclopenta[a]naphthalen-8-ylmethyl)-[3-(1H-indol-3-yl)-propyl]-amine]"
2,165,"Fc1ccc2[nH]cc(CC3CCN(CC4COc5ccc6[nH]ncc6c5O4)CC3)c2c1 (centres unmarked) (as salt: hydrochloride) [Example 7, 8-[4-(5-Fluoro-1H-indol-3-ylmethyl)-piperidin-1-ylmethyl]-7,8-dihydro-3H-6,9-dioxa-2,3-diaza-cyclopenta[a]naphthalene]"
3,> 300,"c1cc2[nH]ncc2c2c1OCC(CNCC13CC4CC(CC(C4)C1)C3)O2 (centres unmarked) (as salt: hydrochloride) [Example 3, Adamantan-1-ylmethyl-(-7,8-dihydro-3H-6,9-dioxa-2,3-diaza-cyclopenta[a]naphthalen-8-ylmethyl)-amine]"
4,170 to 172,"c1ccc2c(c1)CCN(CC1COc3ccc4[nH]ncc4c3O1)C2 (centres unmarked) (as salt: hydrochloride) [Example 5, 8-(3,4-Dihydro-1H-isoquinolin-2-ylmethyl)-7,8-dihydro-3H-6,9-dioxa-2,3-diaza-cyclopenta[a]naphthalene]"
